In brackets after ≈: the same amount, converted by molar mass.
System: Mycobacterium tuberculosis
Assay: Bacteriostatic activity against Mycobacterium bovis BCG after 7 days by Alamar Blue assay
Type: functional
Conditions: variant bovis BCG, 168 h

Compound	MIC [µM]
N[C@@H](CSC(Cl)=C(Cl)Cl)C(=O)N[C@@H]1[C@@H](O)[C@H](O)[C@@H](CO)O[C@@H]1SC1CCCCC1	62.5 (≈ 31.9 µg/mL)
N[C@@H](CSC(Cl)=C(Cl)Cl)C(=O)N[C@@H]1[C@@H](O)[C@H](O)[C@@H](CO)O[C@H]1SC1CCCCC1	125 (≈ 63.7 µg/mL)
CC(C)(C)OC(=O)N[C@@H](CSC(Cl)=C(Cl)Cl)C(=O)N[C@@H]1[C@@H](O)[C@H](O)[C@@H](CO)O[C@@H]1SC1CCCCC1	500 (≈ 305 µg/mL)
CC(C)(C)OC(=O)N[C@@H](CSC(Cl)=C(Cl)Cl)C(=O)N[C@@H]1[C@@H](O)[C@H](O)[C@@H](CO)O[C@H]1SC1CCCCC1	≥ 1000

From ChEMBL document CHEMBL3399990, “Synthesis of mycothiol conjugate analogues and evaluation of their antimycobacterial activity” (Bioorg Med Chem Lett, 2015)
